Laboratory results from patent publication US7592025B2, “Vehicles for oral care with magnolia bark extract” (GIC Innovations Company, priority 2005, dated 2009).

What was measured:
[1] = tested on: bacteria from freshly-collected stimulated whole saliva (plaque biofilm); experiment: Mixed culture saliva biofilm on saliva-coated hydroxyapatite discs, timed exposure to actives; type: cell-based; conditions: for pH (of medium): second series (Table 7)
Description: Although useful to show the comparative effect of Magnolia Bark Extract on biofilm formation and MIC growth, the foregoing test procedure may not effectively mimic the in vivo exposure of an oral care product to a developing plaque biofilm. In an in vivo situation, the active could be exposed to the plaque for a defined period of time at a set frequency (for example, for 5 minutes, three times a day). Therefore, a series of comparative experiments were conducted to mimic the in vivo use of potential active ingredients. To perform the tests the saliva compositions listed below in Tables 2 and 3 were prepared.
A mixed culture system that utilizes the bacteria from freshly-collected stimulated whole saliva was used. Saliva cell pellets were used to inoculate saliva-coated hydroxyapatite (S-HA) discs. The discs were placed in 24-well cell culture plates and incubated for up to 3 days. Biofilms were exposed to actives on days 2 and 3 (starting at 18 hours), and quantified on day 4. The number of bacteria was determined by spectrophotometric absorbance or optical density (OD) at 600 nm. The five phases of the experiment were: pellicle formation; bacterial attachment; biofilm growth; exposure to actives; and bacterial enumeration.
To form the pellicles, HA Discs were ultrasonically washed in deionized water and air-dried, then autoclaved. The discs were placed in a 24-well plate with 1 ml 50% sterile saliva (1 part sterile whole saliva: 1 part saliva buffer, filter sterilize after preparation) for 2 hours on slow agitation at room temperature. […]
After overnight incubation (day 2), discs were exposed to controls and actives. […] On day 4 the discs were removed from the medium, the medium pH was measured to obtain an indication of metabolic activity, and the discs were placed into tubes with 2.5 ml PBS, vortexed for 20 sec, and then placed into the ultrasonic bath for another 20 sec. The suspension was transferred into cuvettes and the bacterial cell density determined by OD measurements at 600 nm. […]

incubated saliva = experiment: MIC of surface active agents and emulsifiers by two-fold serial dilution in nutrient broth; type: cell-based; conditions: for MIC (ppm): incubated saliva, 24 hours at 37° C.; for germ-kill efficacy (in words): assessment of Table 9 results
Description: (§1) To evaluate the germ-kill efficacy and synergist effect when two or more germ-kill actives are combined, testing was performed to determine the ratio of MBE to surface active agent. The germ-kill active and/or surface active agent were dissolved in ethanol or sterile water to give an initial concentration 0.1% to 1%. The solution was diluted with a nutrient broth to give an initial concentration of 0.05% to 0.5%, which was then serially diluted two-fold so that each subsequent dilution contained 50% of the compound concentration of the previous dilution while maintaining a constant level of nutrients for each dilution. These dilutions were inoculated with representative oral microorganisms, or incubated saliva, and incubated for 24 hours at 37° C. For each surface active agent, the lowest dilution that was not turbid was registered as the MIC. The MBC was determined by transferring 10 microliter of liquid from non-turbid tubes to fresh growth media and incubated for 48 hours.

S. mutans = experiment: MIC and fractional inhibitory index (FIC) of combinations by two-fold serial dilution; type: cell-based, Streptococcus mutans; conditions: 24 hours at 37° C., ratio as in label
Description: as §1
(1) where an FIC value of less than 1.0 is synergistic, an FIC between 1.0 and 2.0 is additive, and an FIC greater than 2.0 is antagonistic.

Compound | MIC (ppm) (incubated saliva) | germ-kill efficacy (in words) (incubated saliva) | further results
[H]/N=C(\N/C(=N/[H])NCCCCCCNC(=N)NC(=N)Nc1ccc(Cl)cc1)Nc1ccc(Cl)cc1 [CHX, Chlorhexidine] | – | – | pH (of medium, indication of metabolic activity) ([1]; CHX 0.12%, exposure one minute two times a day, day 4): 8.8; pH (of medium) ([1]; CHX 0.1% (1000 ppm)): 8.8
N=C(NCCCCCCNC(=N)NC(=N)Nc1ccc(Cl)cc1)NC(=N)Nc1ccc(Cl)cc1.O=C(O)[C@H](O)[C@@H](O)[C@H](O)[C@H](O)CO.O=C(O)[C@H](O)[C@@H](O)[C@H](O)[C@H](O)CO [Chlorhexidine gluconate, reference compound] | 2 | – | MIC/ppm (S. mutans): 2 ppm
CCCCCCCCCCCCOS(=O)(=O)[O-].[Na+] [SLS, Sodium Lauryl Sulfate] | – | good | pH (of medium) ([1]; SLS 1000 ppm): 5.7
CCCCCCCCCCCC(=O)OCCOCCOCCOCCOCCOCCOCCOCCOCCOCCOCCOCCOCCOCCOCCOCCOCCOCCOCCOCCOCC(OCCOCCOCCOCCOCCOCCOCCOCCOCCOCCOCCOCCOCCOCCOCCOCCOCCOCCOCCOCCO)C1OCC(OCCOCCOCCOCCOCCOCCOCCOCCOCCOCCOCCOCCOCCOCCOCCOCCOCCOCCOCCOCCO)C1OCCOCCOCCOCCOCCOCCOCCOCCOCCOCCOCCOCCOCCOCCOCCOCCOCCOCCOCCOCCO (stereo not shown) [Tween 20, Polysorbate 20] | – | weak or non | –
Cocamidopropyl Betaine | – | good | –
Sodium Brasslate | 500 | moderate | –
Sodium Stearoyl Lactylate | >3000 | weak or non | –
Sucrose Distearate | >500 | weak or non | –
Sucrose Stearate | >500 | weak or non | –
